Legend:
[1] = system: Syrian golden hamster; experiment: Decrease in liver triglyceride level in high fat-diet fed syrian golden hamster model of dyslipidemia at 3 mg/kg administered qd through oral gavage measured after 21 days by FPLC analysis relative to control; format: functional, Mesocricetus auratus; set-up: scale not given: the % may be the effect or the level left
[2] = system: Syrian golden hamster; experiment: Decrease in liver triglyceride level in high fat-diet fed syrian golden hamster model of dyslipidemia at 1 mg/kg administered qd through oral gavage measured after 21 days by FPLC analysis relative to control; format: functional, Mesocricetus auratus; set-up: scale not given: the % may be the effect or the level left
[3] = biological target: T1, Peroxisome proliferator-activated receptor gamma (Homo sapiens, UniProt P37231); experiment: Agonist activity at full length human PPAR-gamma transfected in human HepG2 cells by luciferase reporter gene assay; format: cell-based
T1 sequence (P37231 whole entry): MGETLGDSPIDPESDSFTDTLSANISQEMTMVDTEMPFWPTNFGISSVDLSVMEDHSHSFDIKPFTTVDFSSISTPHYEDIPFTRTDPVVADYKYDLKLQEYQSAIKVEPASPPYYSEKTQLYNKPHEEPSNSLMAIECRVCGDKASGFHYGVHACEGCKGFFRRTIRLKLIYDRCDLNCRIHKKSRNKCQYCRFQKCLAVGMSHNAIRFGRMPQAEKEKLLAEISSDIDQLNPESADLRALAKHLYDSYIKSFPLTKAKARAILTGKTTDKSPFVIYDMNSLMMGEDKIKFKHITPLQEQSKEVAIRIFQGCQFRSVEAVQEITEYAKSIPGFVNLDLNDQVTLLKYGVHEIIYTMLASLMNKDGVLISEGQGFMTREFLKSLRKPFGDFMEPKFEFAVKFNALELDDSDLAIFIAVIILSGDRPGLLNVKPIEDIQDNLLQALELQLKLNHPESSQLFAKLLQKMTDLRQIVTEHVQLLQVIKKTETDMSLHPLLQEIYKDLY

[4] = system: Syrian golden hamster; experiment: Decrease in liver cholesterol level in high fat-diet fed syrian golden hamster model of dyslipidemia at 1 mg/kg administered qd through oral gavage measured after 21 days by FPLC analysis relative to control; format: functional, Mesocricetus auratus; set-up: scale not given: the % may be the effect or the level left
[5] = system: HEK293; experiment: Selectivity ratio of EC50 for Gal4-tagged human PPAR-gamma expressed in HEK cells to EC50 for Gal4-tagged human PPAR-alpha expressed in HEK cells; format: cell-based
[6] = AUC (0 to 8 hrs) in Balb/c mouse at 5 mg/kg, iv; format: ADME, organism-based; set-up: dose 5 mg/kg, time < 8 hr, route intravenous; settings: in vivo
[7] = Plasma clearance in Balb/c mouse at 5 mg/kg, iv; format: ADME, organism-based
[8] = Plasma clearance in dog at 1 mg/kg, iv; format: ADME, organism-based, Canis lupus familiaris
[9] = Volume of distribution at steady state in Balb/c mouse at 5 mg/kg, iv; format: ADME, organism-based; settings: in vivo, read-out: Vdss
[10] = Volume of distribution at steady state in Sprague-Dawley rat at 4 mg/kg, iv; format: ADME, organism-based; settings: in vivo, read-out: Vdss
[11] = Volume of distribution at steady state in cynomolgus monkey at 1 mg/kg, iv; format: ADME, organism-based, Macaca fascicularis; settings: in vivo, read-out: Vdss
[12] = Half life in dog at 1 mg/kg, iv; format: ADME, organism-based, Canis lupus familiaris; settings: in vivo
[13] = Oral bioavailability in Sprague-Dawley rat at 8 mg/kg; format: ADME, organism-based; settings: in vivo
[14] = Oral bioavailability in cynomolgus monkey at 2 mg/kg; format: ADME, organism-based, Macaca fascicularis; settings: in vivo
[15] = Protein binding in rat plasma; format: ADME, cell-free; settings: read-out: PPB (converted)
[16] = Protein binding in dog plasma; format: ADME, cell-free, Canis lupus familiaris; settings: read-out: PPB (converted)
[17] = biological target: Cytochrome P450 2B6 (Homo sapiens, UniProt P20813); experiment: Inhibition of CYP2B6 (unknown origin); format: ADME
Sequence of Cytochrome P450 2B6 (P20813 whole entry): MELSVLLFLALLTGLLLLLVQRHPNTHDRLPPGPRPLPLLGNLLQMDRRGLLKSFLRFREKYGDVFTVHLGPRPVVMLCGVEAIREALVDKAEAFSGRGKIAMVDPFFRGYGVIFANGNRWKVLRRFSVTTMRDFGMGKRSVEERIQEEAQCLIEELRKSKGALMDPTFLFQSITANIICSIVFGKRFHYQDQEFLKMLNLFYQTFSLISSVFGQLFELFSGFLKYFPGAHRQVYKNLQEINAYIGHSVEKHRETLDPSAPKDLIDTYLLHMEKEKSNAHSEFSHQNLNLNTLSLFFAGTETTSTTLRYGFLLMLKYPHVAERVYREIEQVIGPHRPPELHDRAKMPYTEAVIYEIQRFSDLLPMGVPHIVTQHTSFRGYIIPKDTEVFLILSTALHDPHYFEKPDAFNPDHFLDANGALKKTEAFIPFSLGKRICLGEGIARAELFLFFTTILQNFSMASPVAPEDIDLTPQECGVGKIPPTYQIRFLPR

[18] = system: Mus musculus; experiment: Increase in ApoA1 level in transgenic mouse expressing human ApoA1 at 50 mg/kg administered qd through oral gavage measured after 10 days relative to vehicle-treated control; format: functional
[19] = biological target: Cytochrome P450 2D6 (Homo sapiens, UniProt P10635); experiment: Inhibition of CYP2D6 (unknown origin); format: ADME
Sequence of Cytochrome P450 2D6 (P10635 whole entry): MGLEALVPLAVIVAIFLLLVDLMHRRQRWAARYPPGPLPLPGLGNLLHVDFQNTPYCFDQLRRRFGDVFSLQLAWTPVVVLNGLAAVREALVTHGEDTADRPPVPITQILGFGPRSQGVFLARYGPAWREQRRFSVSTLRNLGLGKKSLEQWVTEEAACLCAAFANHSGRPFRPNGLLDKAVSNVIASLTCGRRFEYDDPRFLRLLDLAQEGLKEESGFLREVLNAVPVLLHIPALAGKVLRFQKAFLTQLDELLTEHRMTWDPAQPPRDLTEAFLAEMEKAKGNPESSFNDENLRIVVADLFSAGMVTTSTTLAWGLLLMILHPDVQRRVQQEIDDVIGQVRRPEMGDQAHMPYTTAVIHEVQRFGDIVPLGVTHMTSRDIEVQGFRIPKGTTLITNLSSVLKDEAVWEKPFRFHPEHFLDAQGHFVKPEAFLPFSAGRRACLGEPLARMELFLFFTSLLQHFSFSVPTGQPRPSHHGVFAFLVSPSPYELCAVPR

[20] = species on record: Homo sapiens; experiment: Inhibition of sodium channel (unknown origin) assessed as channel block at 10 uM and 1 Hz by electrophysiology method
[21] = system: Syrian golden hamster; experiment: Decrease in liver triglyceride level in high fat-diet fed syrian golden hamster model of dyslipidemia administered qd through oral gavage measured after 21 days by FPLC analysis; format: functional, organism-based; settings: Mesocricetus auratus

## COC(=O)N(CC(=O)O)Cc1cc(OCc2nc(-c3ccc(Cl)cc3)oc2C)ccc1F
[1]
  Activity: 39.8%
[2]
  Activity: 18.7%
[3]
  EC50: > 1.61 µM
[4]
  Activity: 13%
[5]
  Ratio EC50: 1130
[6]
  AUC(0-t) at 8 h: 13 µM·h
[7]
  clearance: 13.8 mL/min/kg
[8]
  clearance: 10.7 mL/min/kg
[9]
  Vd: 0.6 L/kg
[10]
  Vd: 2.2 L/kg
[11]
  Vd: 3.9 L/kg
[12]
  half-life: 5.5 h
[13]
  bioavailability: 100%
[14]
  bioavailability: 65%
[15]
  fraction unbound: 0.004
[16]
  fraction unbound: 0.005
[17]
  IC50: > 40 µM
[18]
  Activity: 747%
[19]
  IC50: > 40 µM
[20]
  inhibition: 12%
[21]
  Activity: Dose-dependent effect
